Measured values published in patent US10858362B2, “Imidazopyrazinones as PDE1 inhibitors” (H. Lundbeck A/S, priority 2015, dated 2020).

Experiments:
Format in all cases: biochemical
PDE1A = PDE1A (Homo sapiens (Human), UniProt P54750); experiment: PDE1 inhibition assay, PDE1A; conditions: for IC50: 15 nM tritium labelled cAMP; for inhibition at 10 µM: read-out: PDE1A, % inhibition (at 10 μM)
Method: (§1) Reactions were initiated by addition of the cyclic nucleotide substrate, and reactions were allowed to proceed for 1 h at room temperature before being terminated through mixing with 20 μL (0.2 mg) yttrium silicate SPA beads (PerkinElmer).

PDE1C = PDE1C (Homo sapiens (Human), UniProt Q14123); experiment: PDE1 inhibition assay, PDE1C; conditions: for IC50: 15 nM tritium labelled cAMP; for inhibition at 10 µM: read-out: PDE1C, % inhibition (at 10 μM)
Method: as §1, with “(PerkinElmer). The beads were allowed to settle for 1 h in the dark before the plates were counted in a Wallac 1450 Microbeta counter.” for “(PerkinElmer).”

PDE9 = PDE9 (Homo sapiens (Human), UniProt O76083); experiment: PDE9 inhibition assay
Method: A PDE9 assay may for example, be performed as follows: The assay is performed in 60 μL samples containing a fixed amount of the relevant PDE enzyme (sufficient to convert 20-25% of the cyclic nucleotide substrate), a buffer (50 mM HEPES7.6; 10 mM MgCl2; 0.02% Tween20), 0.1 mg/ml BSA, 225 pCi of ^3H-labelled cyclic nucleotide substrate, tritium labeled cAMP to a final concentration of 5 nM and varying amounts of inhibitors. Reactions are initiated by addition of the cyclic nucleotide substrate, and reactions are allowed to proceed for one hr at room temperature before being terminated through mixing with 15 μL 8 mg/mL yttrium silicate SPA beads (Amersham). The beads are allowed to settle for one hr in the dark before the plates are counted in a Wallac 1450 Microbeta counter.
In the context of the present invention the assay was performed in 60 μL assay buffer (50 mM HEPES pH 7.6; 10 mM MgCl2; 0.02% Tween20) containing enough PDE9 to convert 20-25% of 10 nM ^3H-cAMP and varying amounts of inhibitors. Following a 1 hr incubation the reactions were terminated by addition of 15 μL 8 mg/mL yttrium silicate SPA beads (Amersham). The beads were allowed to settle for one hr in the dark before the plates were counted in a Wallac 1450 Microbeta counter.

PDE1B = PDE1B (Homo sapiens (Human), UniProt Q01064); experiment: PDE1 inhibition assay, PDE1B; conditions: for IC50: 15 nM tritium labelled cAMP
Method: as §1, with “(PerkinElmer). The beads were allowed to settle for 1 h in the dark before the plates were counted in a Wallac 1450 Microbeta counter.” for “(PerkinElmer).”

Sequence of PDE9 (O76083 whole entry): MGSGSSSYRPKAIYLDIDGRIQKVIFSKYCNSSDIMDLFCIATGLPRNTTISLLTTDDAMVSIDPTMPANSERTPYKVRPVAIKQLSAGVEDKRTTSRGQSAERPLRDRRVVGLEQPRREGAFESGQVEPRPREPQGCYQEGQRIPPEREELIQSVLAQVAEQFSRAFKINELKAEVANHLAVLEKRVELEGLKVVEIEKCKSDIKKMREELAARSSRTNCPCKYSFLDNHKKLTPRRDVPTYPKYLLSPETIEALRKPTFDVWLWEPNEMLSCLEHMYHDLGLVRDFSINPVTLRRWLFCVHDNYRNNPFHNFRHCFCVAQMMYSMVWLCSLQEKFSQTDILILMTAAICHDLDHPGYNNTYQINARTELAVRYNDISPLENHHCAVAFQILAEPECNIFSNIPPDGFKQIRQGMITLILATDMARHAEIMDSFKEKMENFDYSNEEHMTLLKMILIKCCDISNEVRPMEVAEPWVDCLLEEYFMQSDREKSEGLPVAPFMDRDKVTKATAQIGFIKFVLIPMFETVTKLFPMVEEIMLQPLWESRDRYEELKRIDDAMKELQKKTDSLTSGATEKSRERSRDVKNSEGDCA
Sequence of PDE1A (P54750 whole entry): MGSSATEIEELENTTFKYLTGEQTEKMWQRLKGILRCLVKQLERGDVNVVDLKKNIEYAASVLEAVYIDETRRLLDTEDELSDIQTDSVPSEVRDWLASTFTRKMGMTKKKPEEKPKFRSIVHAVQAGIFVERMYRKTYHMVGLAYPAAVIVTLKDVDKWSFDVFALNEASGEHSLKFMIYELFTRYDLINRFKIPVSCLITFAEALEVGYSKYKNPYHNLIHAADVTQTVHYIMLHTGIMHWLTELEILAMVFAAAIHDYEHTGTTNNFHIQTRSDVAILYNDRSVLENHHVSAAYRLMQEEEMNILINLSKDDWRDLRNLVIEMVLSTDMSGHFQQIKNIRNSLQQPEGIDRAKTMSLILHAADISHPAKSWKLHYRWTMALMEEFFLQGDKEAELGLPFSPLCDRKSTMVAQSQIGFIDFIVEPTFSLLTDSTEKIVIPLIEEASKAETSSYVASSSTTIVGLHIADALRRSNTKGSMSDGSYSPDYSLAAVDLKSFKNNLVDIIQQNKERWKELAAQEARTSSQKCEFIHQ
Sequence of PDE1C (Q14123 whole entry): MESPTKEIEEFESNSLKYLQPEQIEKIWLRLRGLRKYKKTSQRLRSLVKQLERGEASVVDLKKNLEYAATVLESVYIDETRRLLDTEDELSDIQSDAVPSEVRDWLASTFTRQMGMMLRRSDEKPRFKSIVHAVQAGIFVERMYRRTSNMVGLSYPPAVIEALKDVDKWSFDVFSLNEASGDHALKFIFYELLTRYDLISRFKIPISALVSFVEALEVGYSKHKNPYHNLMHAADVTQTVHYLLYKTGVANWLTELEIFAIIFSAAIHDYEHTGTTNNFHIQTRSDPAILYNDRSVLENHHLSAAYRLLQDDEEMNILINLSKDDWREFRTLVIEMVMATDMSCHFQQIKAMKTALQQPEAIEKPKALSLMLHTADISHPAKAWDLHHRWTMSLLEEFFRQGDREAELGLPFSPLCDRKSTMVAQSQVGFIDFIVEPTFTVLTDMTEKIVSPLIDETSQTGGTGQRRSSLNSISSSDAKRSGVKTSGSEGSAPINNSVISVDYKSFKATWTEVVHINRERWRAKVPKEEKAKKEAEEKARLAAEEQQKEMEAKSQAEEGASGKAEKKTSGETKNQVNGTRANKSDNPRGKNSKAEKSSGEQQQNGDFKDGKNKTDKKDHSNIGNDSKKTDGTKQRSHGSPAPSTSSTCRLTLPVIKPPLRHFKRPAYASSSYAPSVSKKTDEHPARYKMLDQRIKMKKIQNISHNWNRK
Sequence of PDE1B (Q01064 whole entry): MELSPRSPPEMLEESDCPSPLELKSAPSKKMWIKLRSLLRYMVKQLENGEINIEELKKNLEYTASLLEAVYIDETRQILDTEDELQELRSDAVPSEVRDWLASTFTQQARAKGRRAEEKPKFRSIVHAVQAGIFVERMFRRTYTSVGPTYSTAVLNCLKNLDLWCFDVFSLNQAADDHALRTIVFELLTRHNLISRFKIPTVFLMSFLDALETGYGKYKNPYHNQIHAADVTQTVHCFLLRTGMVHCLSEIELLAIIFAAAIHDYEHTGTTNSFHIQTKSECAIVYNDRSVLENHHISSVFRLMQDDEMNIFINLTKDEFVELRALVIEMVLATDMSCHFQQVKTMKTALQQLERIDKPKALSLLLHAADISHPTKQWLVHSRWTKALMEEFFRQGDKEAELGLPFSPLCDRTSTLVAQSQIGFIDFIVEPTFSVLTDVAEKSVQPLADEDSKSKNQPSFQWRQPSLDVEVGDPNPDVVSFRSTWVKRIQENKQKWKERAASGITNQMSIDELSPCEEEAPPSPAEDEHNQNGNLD

| SMILES | IC50 (PDE1A) | IC50 (PDE1C) | inhibition at 10 µM (PDE9) | IC50 (PDE1B) | inhibition at 10 µM (PDE1A) | % inhibition of PDE9 at 10 microM (PDE9) | PDE1A, % inhibition (at 10 μM) (PDE1A; at 10 μM) | inhibition at 10 µM (PDE1C) | inhibition at 10 µM (PDE1B; read-out: PDE1B, % inhibition (at 10 μM)) | PDE1A, % inhibition (at 1 μM) (PDE1A; at 1 μM) | PDE1B, % inhibition (at 1 μM) (PDE1B; at 1 μM) |
| --- | --- | --- | --- | --- | --- | --- | --- | --- | --- | --- | --- |
| O=c1c2cnc(C3CCOCC3)n2ccn1CC1CCCCC1 [Example 11, 7-(Cyclohexylmethyl)-3-(tetrahydro-2H-pyran-4-yl)imidazo[1,5-a]pyrazin-8(7H)-one] | 0.113 µM | 0.043 µM | 18% | 0.072 µM |  |  |  |  |  |  |  |
| Cc1cn2c(C3CCOCC3)ncc2c(=O)n1Cc1ccc(O)cc1 [Example 53, 7-(4-hydroxybenzyl)-6-methyl-3-(tetrahydro-2H-pyran-4-yl)imidazo[1,5-a]pyrazin-8(7H)-one] | 0.401 µM | 0.084 µM | -41% | 0.035 µM |  |  |  |  |  |  |  |
| COc1ccc(Cn2c(C)cn3c(C4COC(C)C4)ncc3c2=O)cc1 (stereo not shown) [Example 89, 7-(4-methoxybenzyl)-6-methyl-3-(5-methyltetrahydrofuran-3-yl)imidazo[1,5-a]pyrazin-8(7H)-one] |  | 0.303 µM | 1% | 0.128 µM | 65% |  |  |  |  |  |  |
| Cc1cn2c([C@@H]3C[C@@H]3C)ncc2c(=O)n1Cc1cccc(F)c1 (single isomer, unassigned; isomer 1) [35, isomer 1] | 0.193 µM | 0.019 µM |  | 0.075 µM |  | −11% |  |  |  |  |  |
| O=c1c2cnc(C3CCOCC3)n2cc(Br)n1Cc1cccc(F)c1 [Example 15, 6-Bromo-7-(3-fluorobenzyl)-3-(tetrahydro-2H-pyran-4-yl)imidazo[1,5-a]pyrazin-8(7H)-one] | 0.058 µM | 0.015 µM | 15% | 0.115 µM |  |  |  |  |  |  |  |
| O=c1c2cnc(C3CC3)n2ccn1CC1CCCCCC1 [Example 13, 7-(Cycloheptylmethyl)-3-cyclopropylimidazo[1,5-a]pyrazin-8(7H)-one] | 0.087 µM | 0.062 µM | 7% | 0.05 µM |  |  |  |  |  |  |  |
| COc1ccc(Cn2c(C)cn3c(C4(C)CCN(S(N)(=O)=O)C4)ncc3c2=O)cc1 (stereo not shown) [Example 91, 3-(7-(4-methoxybenzyl)-6-methyl-8-oxo-7,8-dihydroimidazo[1,5-a]pyrazin-3-yl)-3-methylpyrrolidine-1-sulfonamide] | 0.181 µM | 0.417 µM | 20% | 0.185 µM |  |  |  |  |  |  |  |
| Cc1cn2c(N3CCC4OCCC43)ncc2c(=O)n1Cc1cccc(F)c1 (single isomer, unassigned; isomer 2) [99, isomer 2] |  | 0.119 µM |  | 0.76 µM |  | 6% | 47% |  |  |  |  |
| Cc1cn2c(C3(C)CCOCC3)ncc2c(=O)n1Cc1cccc(F)c1 [Example 26, 7-(3-fluorobenzyl)-6-methyl-3-(4-methyltetrahydro-2H-pyran-4-yl)imidazo[1,5-a]pyrazin-8(7H)-one] | 0.234 µM | 0.047 µM | -2% | 0.218 µM |  |  |  |  |  |  |  |
| Cc1cn2c(C3(C#N)CCOCC3)ncc2c(=O)n1Cc1cccc(F)c1 [Example 27, 4-(7-(3-fluorobenzyl)-6-methyl-8-oxo-7,8-dihydroimidazo[1,5-a]pyrazin-3-yl)tetrahydro-2H-pyran-4-carbonitrile] | 0.603 µM | 0.103 µM | 5% | 0.699 µM |  |  |  |  |  |  |  |
| Cc1cn2c(C3CCOCC3)ncc2c(=O)n1C(C)C [Example 61, 7-isopropyl-6-methyl-3-(tetrahydro-2H-pyran-4-yl)imidazo[1,5-a]pyrazin-8(7H)-one] |  |  | 4% |  | 4% |  |  | 47% | 50% |  |  |
| CCn1c(C)cn2c(C3CCOCC3)ncc2c1=O [Example 59, 7-ethyl-6-methyl-3-(tetrahydro-2H-pyran-4-yl)imidazo[1,5-a]pyrazin-8(7H)-one] | 2.33 µM | 1.74 µM | -13% | 0.496 µM |  |  |  |  |  |  |  |
| COc1ccc(Cn2c(C)cn3c(C4CCOCC4C)ncc3c2=O)cc1 (stereo not shown) [Example 69, 7-(4-methoxybenzyl)-6-methyl-3-(3-methyltetrahydro-2H-pyran-4-yl)imidazo[1,5-a]pyrazin-8(7H)-one] | 0.013 µM | 0.024 µM | 2% | 0.008 µM |  |  |  |  |  |  |  |
| Cc1cn2c(C3(C)CCOC3)ncc2c(=O)n1Cc1cccc(F)c1 (single isomer, unassigned; isomer 2) [32, isomer 2] | 0.401 µM | 0.04 µM |  | 0.17 µM |  | 16% |  |  |  |  |  |
| COc1ccc(Cn2c(C)cn3c(C4CCOCC4)ncc3c2=O)cc1Cl [Example 51, 7-(3-chloro-4-methoxybenzyl)-6-methyl-3-(tetrahydro-2H-pyran-4-yl)imidazo[1,5-a]pyrazin-8(7H)-one] | 0.199 µM | 0.046 µM | 1% | 0.036 µM |  |  |  |  |  |  |  |
| Cc1ccc(Cn2c(C)cn3c(C4CCOCC4)ncc3c2=O)cc1 [Example 22, 6-Methyl-7-(4-methylbenzyl)-3-(tetrahydro-2H-pyran-4-yl)imidazo[1,5-a]pyrazin-8(7H)-one] | 0.075 µM | 0.067 µM | 50% | 0.028 µM |  |  |  |  |  |  |  |
| Cc1cn2c(C3CCOCC3)ncc2c(=O)n1C[C@H]1CC[C@@H](C)CC1 [66, cis] | 0.007 µM | 0.004 µM |  | 0.006 µM |  | −3% |  |  |  |  |  |
| Cc1cn2c([C@H]3CCCCO3)ncc2c(=O)n1Cc1cccc(F)c1 (single isomer, unassigned; isomer 2) [30, isomer 2] |  | 0.215 µM |  |  |  | 28% |  |  |  | 27% | 40% |
| CCCc1ncc2c(=O)n(Cc3cccc(F)c3)ccn12 [Example 1, 7-(3-Fluorobenzyl)-3-propylimidazo[1,5-a]pyrazin-8(7H)-one] | 0.801 µM | 0.3 µM | -12% | 0.79 µM |  |  |  |  |  |  |  |
| Cc1cn2c(C3CCOCC3)ncc2c(=O)n1CC1CCCCCC1 [Example 65, 7-(cycloheptylmethyl)-6-methyl-3-(tetrahydro-2H-pyran-4-yl)imidazo[1,5-a]pyrazin-8(7H)-one] | 0.01 µM | 0.005 µM | 11% | 0.006 µM |  |  |  |  |  |  |  |
| COc1ccc(Cn2c(C)cn3c(C(C)c4nc(C)cs4)ncc3c2=O)cc1 (stereo not shown) [Example 90, 7-(4-methoxybenzyl)-6-methyl-3-(1-(4-methylthiazol-2-yl)ethyl)imidazo[1,5-a]pyrazin-8(7H)-one] | 0.034 µM | 0.023 µM | 10% | 0.015 µM |  |  |  |  |  |  |  |
| Cc1cn2c(C3(F)CCOCC3)ncc2c(=O)n1Cc1cccc(F)c1 [Example 29, 7-(3-fluorobenzyl)-3-(4-fluorotetrahydro-2H-pyran-4-yl)-6-methylimidazo[1,5-a]pyrazin-8(7H)-one] | 0.493 µM | 0.05 µM | 16% | 0.249 µM |  |  |  |  |  |  |  |
| Cc1cn2c(C3CCOCC3)ncc2c(=O)n1C [Example 58, 6,7-dimethyl-3-(tetrahydro-2H-pyran-4-yl)imidazo[1,5-a]pyrazin-8(7H)-one] |  |  | 36% | 1.77 µM | 58% |  |  | 44% |  |  |  |
| Cc1cn2c(C3CCOCC3)ncc2c(=O)n1Cc1cccc(F)c1 [Example 5, 7-(3-Fluorobenzyl)-6-methyl-3-(tetrahydro-2H-pyran-4-yl)imidazo[1,5-a]pyrazin-8(7H)-one] | 0.108 µM | 0.014 µM | 18% | 0.12 µM |  |  |  |  |  |  |  |
| COc1ccc(Cn2c(C)cn3c(N4CCCOCC4)ncc3c2=O)cc1 [Example 97, 7-(4-methoxybenzyl)-6-methyl-3-(1,4-oxazepan-4-yl)imidazo[1,5-a]pyrazin-8(7H)-one] | 0.202 µM | 0.128 µM | -8% | 0.082 µM |  |  |  |  |  |  |  |
| Cc1cn2c(C3CCOCC3)ncc2c(=O)n1CCC(C)C [Example 62, 7-isopentyl-6-methyl-3-(tetrahydro-2H-pyran-4-yl)imidazo[1,5-a]pyrazin-8(7H)-one] | 1.08 µM | 0.093 µM | 7% | 0.558 µM |  |  |  |  |  |  |  |
| COc1ccc(Cn2c(C)cn3c(C4CCNC(=O)CC4)ncc3c2=O)cc1 (stereo not shown) [Example 88, 7-(4-methoxybenzyl)-6-methyl-3-(7-oxoazepan-4-yl)imidazo[1,5-a]pyrazin-8(7H)-one] | 0.484 µM | 0.548 µM | -32% | 0.308 µM |  |  |  |  |  |  |  |
| COc1ccc(Cn2c(C)cn3c(N4CCOC(C)(C)C4)ncc3c2=O)cc1 [Example 98, 3-(2,2-dimethylmorpholino)-7-(4-methoxybenzyl)-6-methylimidazo[1,5-a]pyrazin-8(7H)-one] | 0.287 µM | 0.135 µM | 4% | 0.102 µM |  |  |  |  |  |  |  |
